Test results from patent publication US11802127B2, “3,4-dihydro-2,7-naphthyridine-1,6(2H,7H)-diones as MEK inhibitors” (Pfizer Inc., priority 2021, dated 2023).

Experiments:
BCRP (hBCRP) = target: T1, BCRP (hBCRP) (Homo sapiens, UniProt Q9UNQ0); assay: Efflux ratio in BCRP transfected MDCKII canine P-gp knockout cells; assay type: in vitro ADME; settings: Papp(B−A)/Papp(A−B), read-out: Efflux ratio MDCKII-hBCRP knock-in,canine pg-P KO
T1 construct: expressed in transfected cells; host or cells: MDCKII (canine kidney) cells, canine P-gp knockout, transfected with BCRP
T1 sequence (Q9UNQ0 1-655): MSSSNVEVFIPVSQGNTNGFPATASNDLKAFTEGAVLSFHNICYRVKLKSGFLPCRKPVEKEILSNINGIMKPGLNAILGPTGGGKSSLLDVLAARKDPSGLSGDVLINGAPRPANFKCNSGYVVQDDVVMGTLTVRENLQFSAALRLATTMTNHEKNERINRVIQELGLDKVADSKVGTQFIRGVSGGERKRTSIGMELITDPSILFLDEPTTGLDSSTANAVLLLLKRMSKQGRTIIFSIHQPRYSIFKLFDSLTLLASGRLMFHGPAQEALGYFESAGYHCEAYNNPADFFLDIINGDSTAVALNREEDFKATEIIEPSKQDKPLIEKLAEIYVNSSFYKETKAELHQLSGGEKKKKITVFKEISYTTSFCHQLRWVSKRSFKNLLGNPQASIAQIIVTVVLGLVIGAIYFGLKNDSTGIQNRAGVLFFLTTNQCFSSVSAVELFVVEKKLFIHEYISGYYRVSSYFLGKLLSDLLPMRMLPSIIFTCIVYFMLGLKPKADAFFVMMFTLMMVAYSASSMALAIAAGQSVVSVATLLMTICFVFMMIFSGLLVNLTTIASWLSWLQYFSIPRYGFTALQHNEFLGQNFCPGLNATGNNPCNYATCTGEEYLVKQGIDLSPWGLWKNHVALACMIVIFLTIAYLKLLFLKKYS
How it was run: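 Test article at 1 μM final (1% organic) in A→B and B→A directions across MDCKII P-gp knockout monolayers expressing BCRP, 2 h at 37° C., triplicate; lucifer yellow checked monolayer integrity. Concentrations by LC-MS/MS against labetalol internal standard; efflux ratio = Papp(B−A)/Papp(A−B).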

[1] = PK (Free Brain-to-Free Plasma Ratio) (Mouse); assay type: in vivo; settings: brain and plasma, male CD-1 mice, oral gavage 10 mg/kg, sampling 2, 4, 8, 12 and 24 hours, (B/P)*(Bfu/Pfu)
Method: The ability of representative compounds to penetrate the BBB in mice was determined by evaluating the unbound brain-to-unbound plasma (also referred to as free brain-to-free plasma) concentration ratio in male CD-1 mice.
Brain compound levels were generated from oral mouse PK dosing with typical sampling times of 2, 4, 8, 12 and 24 hours post oral gavage dosing at 10 mg/kg. Brain samples were stored at −20±5° C. prior to analysis. Concentrations of test compound in mouse brain homogenate were determined by liquid chromatography tandem mass spectrometry (LC-MS/MS) following protein precipitation with acetonitrile. A 12-point calibration curve, ranging from 0.5 to 10,000 ng/mL, was prepared in duplicate. A solution of 400 μg/mL of test compound in dimethyl sulfoxide (DMSO) was serially diluted (3-fold) in 100% DMSO, and then 2.5 μL of each standard solution was added to 100 μL of naïve male CD-1 mice brain homogenate. To mimic the extraction in the standard curve, 2.5 μL of DMSO was added to all test samples. Both calibration and test brain homogenate samples were spiked with 10 μL of an IS (1 μg/mL of a structural analog). Brain homogenate was generated by adding 0.75 mL of 4:1 water:MeOH to each brain sample followed by homogenization for 1 minute with bead beater tubes a 6 m/s using an MP Fast Prep-24®. Proteins were precipitated from 100 μL of brain homogenate sample by the addition of 300 μL of acetonitrile. Samples were vortex-mixed for 5 minutes and spun in an Allegra X-12R centrifuge (Beckman Coulter, Fullerton, CA; SX4750A rotor) for 15 min at about 1,500×g at 4° C. A 100 μL aliquot of each supernatant was transferred via a 550 μL Personal Pipettor (Apricot Designs, Monrovia, CA) to 96-well plates and diluted 1:1 with HPLC grade water. The resulting plates were sealed with aluminum for LC-MS/MS analysis.
Brain-to-plasma ratios were calculated using the concentration of compound measured in the brain divided by the concentration of compound measured in the plasma. Brain-to-plasma ratios were always generated from a single animal and time point. Free brain-to-free plasma ratios were calculated by multiplying the brain-to-plasma ratio by the in vitro brain homogenate free fraction divided by the in vitro plasma free fraction using the following equation: (B/P)*(Bfu/Pfu).

Compound	efflux ratio at 2 h, 1 μM (BCRP (hBCRP))	Kp,uu (unbound brain-to-unbound plasma ratio) [1]
CSc1ccc(Nc2c3c(cc(=O)n2C)CCN(OCCO)C3=O)c(F)c1 [Example 6, 8-((2-fluoro-4-(methylthio)phenyl)amino)-2-(2-hydroxyethoxy)-7-methyl-3,4-dihydro-2,7-naphthyridine-1,6(2H,7H)-dione]	5.5	0.88 to 1.26
Cn1c(Nc2ccc(Br)cc2F)c2c(cc1=O)CCN(OCCO)C2=O [Example 7, 8-((4-bromo-2-fluorophenyl)amino)-2-(2-hydroxyethoxy)-7-methyl-3,4-dihydro-2,7-naphthyridine-1,6(2H,7H)-dione]	9.6	0.62 to 1.06

Other lines, results leading:

efflux ratio at 2 h, 1 μM (BCRP (hBCRP))	Kp,uu (unbound brain-to-unbound plasma ratio) [1]	Compound
3.4	1.01 to 16.1	Cn1c(Nc2ccc(I)cc2F)c2c(cc1=O)CCN(OCCO)C2=O [Example 8, 8-((2-fluoro-4-iodophenol)amino)-2-(2-hydroxyethoxy)-7-methyl-3,4-dihydro-2,7-naphthyridine-1,6(2H,7H)-dione]
3.4	0.57 to 1.58	CCc1ccc(Nc2c3c(cc(=O)n2C)CCN(OCCO)C3=O)c(F)c1 [Example 14, 8-((4-ethyl-2-fluorophenyl)amino)-2-(2-hydroxyethoxy)-7-methyl-3,4-dihydro-2,7-naphthyridine-1,6(2H,7H)-dione]
9	0.33 to 2.92	Cn1c(Nc2ccc(OC(F)F)cc2F)c2c(cc1=O)CCN(OCCO)C2=O [Example 22, 8-((4-(difluoromethoxy)-2-fluorophenyl)amino)-2-(2-hydroxyethoxy)-7-methyl-3,4-dihydro-2,7-naphthyridine-1,6(2H,7H)-dione]
3.5	0.83 to 2.09	Cc1c2c(c(Nc3ccc(Br)cc3F)n(C)c1=O)C(=O)N(OCCO)CC2 [Example 36, 8-((4-bromo-2-fluorophenyl)amino)-2-(2-hydroxyethoxy)-5,7-dimethyl-3,4-dihydro-2,7-naphthyridine-1,6(2H,7H)-dione]
